Source: PubChem BioAssay AID1963831 (Molecular Pharmacology Branch, DTP, NCI, 2024)
pIC50: −log10 of the molar value.

Tested on: 889142-216-R-J1-PDC complex spheroid viability
Assay: Anticancer human tumor 889142-216-R-J1-PDC patient-derived bladder carcinoma cell line growth inhibition [POLQ]
Conditions: for pIC50: curve of first compound; for viability, T/C: stronger effect = lower value
Procedure: Multicellular complex tumor spheroid response to Polymerase (POL) inhibitors (novobiocin, ART-558, RP6685) in combination with a variety of drugs and investigational agents in selected tumor cell lines
The POL inhibitors (novobiocin, ART-558, and RP6685) were evaluated both individually and in combination with standard of care and investigational anticancer small molecules within a complex spheroid model of solid tumors. . Complex spheroids include a stromal component modeled by human endothelial cells (HUVEC) and fibroblasts modeled by human mesenchymal stem cells (MSCs). The concentration ranges selected for each drug and investigational agent were based upon clinically achievable concentrations if the clinical Cmax of the agent was known.
Compounds. The drugs and investigational agents: novobiocin (NSC847541), ART-558 (NSC835418), RP-6685 (NSC848927), peposertib (NSC802822), ceralasertib (NSC780249), elimusertib (NSC800525), camonsertib (NSC841442), AZD-1390 (NSC803789), olaparib (NSC753686), talazoparib (NSC767125), rucaparib (NSC756644), sotorasib (NSC818433), MRTX-1133 (NSC836407), SN-38 (NSC673596), topotecan (NSC609699), epotoside (NSC141540), doxorubicin (NSC123127), gemcitabine (NSC613327), 5-fluorouracil (NSC19893), paclitaxel (NSC125973), vemurafenib (NSC761431), MSA-2 (NSC828583), SN-011 (NSC837082), adavosertib (NSC754352), prexasertib (NSC758257), carboplatin (NSC241240) and oxaliplatin (NSC266046), were obtained from the National Cancer Institute (NCI) Developmental Therapeutics Program Chemical Repository (21). The FDA-approved anticancer drug set is available from the Developmental Therapeutics Program at https://dtp.cancer.gov/organization/dscb/obtaining/. […] The stock solutions were prepared in dimethyl sulfoxide (DMSO, Sigma-Aldrich, St. Louis, MO, cat. D2650), except for the platinum compounds which were prepared in saline (Quality Biological, Gaithersburg, MD, cat. 114-055-101), at 800-fold the tested concentration and stored at -70 degrees C prior to their use. All drugs and investigational agents were tested over a range starting from a high concentration at or near the clinical Cmax and decreasing in half-log increments. If the clinical Cmax for an agent had not been determined, the highest concentration tested was 10 microM, except for SN-38, which was tested at a high concentration of 1 microM.
Cell Culture. All cells were maintained in an incubator at 37 degrees C and 5% CO2 with 95% humidity. The PDC lines were cultured according to standard operating procedures established by the NCI PDMR (https://pdmr.cancer.gov). Table 3 of the manuscript, lists the cell lines along with the number of the three cell types plated to form the mct-spheroids and media for tumor cell growth. After thawing, all PDC lines, except 997537-175-T-J1-PDC and 415267-285-R-J2-PDC, were cultured in Matrigel-coated flasks prepared with a working solution of 1X Ham's F-12 nutrient mix, without supplementation (Thermo Fisher Scientific, cat. 11765054), 100 U/mL penicillin-streptomycin (Thermo Fisher Scientific, cat. 15140122), and 2.5% Matrigel (Corning Inc., Corning, NY, cat. 354248) for the first three passages. The two PDC lines 997537-175-T-J1-PDC and 415267-285-R-J2-PDC were cultured on uncoated flasks. The 857933-349-R-J2-PDC line was cultured in 6C/Colon 1B media containing advanced DMEM/F-12 (Thermo Fisher Scientific, cat. 12634028), 10 mM HEPES (Thermo Fisher Scientific, cat. 15630080), 1X GlutaMAX supplement (Thermo Fisher Scientific, cat. 35050061), 0.1 mg/mL primocin (InvivoGen, San Diego, CA, cat. ant-pm-2), 10% defined fetal bovine serum, heat inactivated (HyClone Laboratories Inc., Logan, UT, cat. SH30070.03HI), 50% L-WRN conditioned media (ATCC, cat. CRL-3276), 1.25 mM N-Acetyl-L-cysteine (Sigma-Aldrich, cat. A9165), 10 mM nicotinamide (Sigma-Aldrich, cat. N0636), 1X B-27 supplement (Thermo Fisher Scientific, cat. 17504044), 1X N-2 supplement (Thermo Fisher Scientific, cat. […]

[1] = second compound 0.0316 µM, first compound 0.0316 µM
[2] = second compound 0.0316 µM, first compound 0.1 µM
[3] = second compound 0.0316 µM, first compound 0.316 µM
[4] = second compound 0.0316 µM, first compound 1 µM
[5] = second compound 0.0316 µM, first compound 3.16 µM
[6] = second compound 0.0316 µM, first compound 10 µM
[7] = second compound 0.1 µM, first compound 0.0316 µM
[8] = second compound 0.1 µM, first compound 0.1 µM
[9] = second compound 0.1 µM, first compound 0.316 µM
[10] = second compound 0.1 µM, first compound 1 µM
[11] = second compound 0.1 µM, first compound 3.16 µM
[12] = second compound 0.1 µM, first compound 10 µM
[13] = second compound 0.316 µM, first compound 0.0316 µM
[14] = second compound 0.316 µM, first compound 0.1 µM
[15] = second compound 0.316 µM, first compound 0.316 µM
[16] = second compound 0.316 µM, first compound 1 µM
[17] = second compound 0.316 µM, first compound 3.16 µM
[18] = second compound 0.316 µM, first compound 10 µM
[19] = second compound 1 µM, first compound 0.0316 µM
[20] = second compound 1 µM, first compound 0.1 µM
[21] = second compound 1 µM, first compound 0.316 µM
[22] = second compound 1 µM, first compound 1 µM
[23] = second compound 1 µM, first compound 3.16 µM
[24] = second compound 1 µM, first compound 10 µM
[25] = second compound 3.16 µM, first compound 0.0316 µM
[26] = second compound 3.16 µM, first compound 0.1 µM
[27] = second compound 3.16 µM, first compound 0.316 µM
[28] = second compound 3.16 µM, first compound 1 µM
[29] = second compound 3.16 µM, first compound 3.16 µM
[30] = second compound 3.16 µM, first compound 10 µM
[31] = second compound 10 µM, first compound 0.0316 µM
[32] = second compound 10 µM, first compound 0.1 µM
[33] = second compound 10 µM, first compound 0.316 µM
[34] = second compound 10 µM, first compound 1 µM
[35] = second compound 10 µM, first compound 3.16 µM
[36] = second compound 10 µM, first compound 10 µM
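Also: spheroids exposed to compounds for seven days.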
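For viability, T/C in this document: 100% = DMSO vehicle control viability.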

SMILES: COc1cc(C2c3cc4c(cc3C(OC3OC5COC(C)OC5C(O)C3O)C3COC(=O)C23)OCO4)cc(OC)c1O (centres undefined) + Nc1ccc(C#CCN(C(=O)Cc2ncc(C(F)(F)F)cc2C(F)(F)F)c2ccc(F)cc2)nn1
- pIC50 (second compound 0.0316 µM): < 5.00
- pIC50 (second compound 0.1 µM): < 5.00
- pIC50 (second compound 0.316 µM): < 5.00
- pIC50 (second compound 1 µM): 5.05
- pIC50 (second compound 3.16 µM): < 5.00
- pIC50 (second compound 10 µM): < 5.00
- viability, T/C [1]: 90.8%
- viability, T/C [2]: 92.8%
- viability, T/C [3]: 86.8%
- viability, T/C [4]: 60.5%
- viability, T/C [5]: 96.8%
- viability, T/C [6]: 62.9%
- viability, T/C [7]: 99.5%
- viability, T/C [8]: 101%
- viability, T/C [9]: 69.3%
- viability, T/C [10]: 60.2%
- viability, T/C [11]: 84.5%
- viability, T/C [12]: 61.5%
- viability, T/C [13]: 116%
- viability, T/C [14]: 86.2%
- viability, T/C [15]: 78.8%
- viability, T/C [16]: 69%
- viability, T/C [17]: 79.2%
- viability, T/C [18]: 54.4%
- viability, T/C [19]: 121%
- viability, T/C [20]: 95.6%
- viability, T/C [21]: 80.5%
- viability, T/C [22]: 58.2%
- viability, T/C [23]: 66%
- viability, T/C [24]: 56.9%
- viability, T/C [25]: 104%
- viability, T/C [26]: 78.2%
- viability, T/C [27]: 72.2%
- viability, T/C [28]: 59.8%
- viability, T/C [29]: 68.1%
- viability, T/C [30]: 61%
- viability, T/C [31]: 86.7%
- viability, T/C [32]: 104%
- viability, T/C [33]: 79.9%
- viability, T/C [34]: 74.3%
- viability, T/C [35]: 76.4%
- viability, T/C [36]: 62.9%

SMILES: COc1cccc2c1C(=O)c1c(O)c3c(c(O)c1C2=O)CC(O)(C(=O)CO)CC3OC1CC(N)C(O)C(C)O1 (centres undefined) + Nc1ccc(C#CCN(C(=O)Cc2ncc(C(F)(F)F)cc2C(F)(F)F)c2ccc(F)cc2)nn1
- pIC50 (second compound 0.0316 µM): 6.47
- pIC50 (second compound 0.1 µM): 6.47
- pIC50 (second compound 0.316 µM): 6.60
- pIC50 (second compound 1 µM): 6.35
- pIC50 (second compound 3.16 µM): 6.54
- pIC50 (second compound 10 µM): 6.50
- viability, T/C [1]: 55.1%
- viability, T/C [2]: 78.9%
- viability, T/C [3]: 52.2%
- viability, T/C [4]: 6.13%
- viability, T/C [5]: 0.74%
- viability, T/C [6]: 1.95%
- viability, T/C [7]: 71.8%
- viability, T/C [8]: 79.8%
- viability, T/C [9]: 52%
- viability, T/C [10]: 9.08%
- viability, T/C [11]: 1.08%
- viability, T/C [12]: 1.72%
- viability, T/C [13]: 66.6%
- viability, T/C [14]: 76.2%
- viability, T/C [15]: 44.1%
- viability, T/C [16]: 8.99%
- viability, T/C [17]: 1.03%
- viability, T/C [18]: 1.55%
- viability, T/C [19]: 77.8%
- viability, T/C [20]: 75.3%
- viability, T/C [21]: 68.6%
- viability, T/C [22]: 7.94%
- viability, T/C [23]: 1.14%
- viability, T/C [24]: 2.34%
- viability, T/C [25]: 66%
- viability, T/C [26]: 77.7%
- viability, T/C [27]: 47.9%
- viability, T/C [28]: 4.28%
- viability, T/C [29]: 0.84%
- viability, T/C [30]: 1.58%
- viability, T/C [31]: 71.5%
- viability, T/C [32]: 72.3%
- viability, T/C [33]: 50.2%
- viability, T/C [34]: 3.75%
- viability, T/C [35]: 1.07%
- viability, T/C [36]: 1.08%
